Results published in BindingDB's records for doi:10.1016/j.bioorg.2017.03.014 (University of Karachi, 2017).

Key:
Carbonic anhydrase 2 [1] = target: T1, Carbonic anhydrase 2 (Bos taurus, UniProt P00921); assay: Carbonic Anhydrase II Inhibition Assay; details: pH 7.4; 25 °C
Description: In this assay, 4-nitrophenyl acetate (4-NPA), a colorless compound, was hydrolyzed to 4-nitrophenol and […]. The reaction was followed by measuring the formation of 4-nitrophenol, a yellow colored compound. The reaction was performed at 25 °C inbuffer containing HEPES and Tris-HCl at a total concentration of 20 mM and pH of 7.4 for each sample. The reaction mixture contained 140 μL of the HEPES-tris solution, 20 μL of freshly prepared aqueous solution of purified bovine erythrocyte CA-II (0.1 mg/mL of deionized water for 96-well), 20 μL of test compound in DMSO (10% final concentration), 20 μL of substrate 4-NPA at a concentration of 0.7 mM diluted in ethanol. The reaction was initiated by addition of 4-NPA after 15 min incubation of test compound, and each compound was tested 3-times at different concentrations. In this assay, the reaction was performed using 96-well plates.

Carbonic anhydrase 2 [2] = target: T1, Carbonic anhydrase 2; assay: Carbonic Anhydrase II Kinetic Assay; details: pH 7.4
Description: Kinetic studies were performed by using different concentration of inhibitors over different concentrations of substrate (4-NPA) such as 0.175, 0.35, 0.70 and 1.40 mM. The enzyme 0.2 mg/mL concentration for each well was used after dissolving in de-ionized water. HEPES-tris ammonia was used as buffer at pH of 7.4. The change in absorbance was measured by keeping the 96-well flat bottom plate in ELISA reader (Spectra max 384, Molecular Devices USA) after addition of substrate for a period of 30 min at 25 °C with 1 min interval.

T1 sequence (P00921 whole entry): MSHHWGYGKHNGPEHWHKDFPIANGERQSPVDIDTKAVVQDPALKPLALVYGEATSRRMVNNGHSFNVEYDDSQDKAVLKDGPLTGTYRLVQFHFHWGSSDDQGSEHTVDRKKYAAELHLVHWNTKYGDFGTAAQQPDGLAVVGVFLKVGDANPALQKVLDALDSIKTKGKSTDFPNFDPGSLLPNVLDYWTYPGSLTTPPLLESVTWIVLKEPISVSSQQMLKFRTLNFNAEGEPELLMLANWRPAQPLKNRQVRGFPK

| SMILES | IC50 (Carbonic anhydrase 2 [1]) [µM] | Ki (Carbonic anhydrase 2 [2]) [µM] |
| --- | --- | --- |
| O=C(N/N=C/c1ccc(Cl)cc1Cl)N/N=C/c1ccc(Cl)cc1Cl [N'',N'''-Bis[(E)-(2,4-dichlorophenyl)methylidene]carbonic dihydrazide (8)] | 2.67 |  |
| O=C(N/N=C/c1c(Cl)cccc1Cl)N/N=C/c1c(Cl)cccc1Cl [N'',N'''-Bis[(E)-(2,6-dichlorophenyl)methylidene]carbonic dihydrazide (9)] | 1.46 | 1.78 |
| O=C(N/N=C/c1ccccc1Br)N/N=C/c1ccccc1Br [N'',N'''-Bis[(E)-(2-bromophenyl)methylidene]carbonic dihydrazide (5)] | 3.96 |  |
| O=C(N/N=C/c1cc([N+](=O)[O-])ccc1Cl)N/N=C/c1cc([N+](=O)[O-])ccc1Cl [N'',N'''-Bis[(E)-(2-chloro-5-nitrophenyl)methylidene]carbonic dihydrazide (3)] | 1.37 | 3.58 |
| O=C(N/N=C/c1ccccc1Cl)N/N=C/c1ccccc1Cl [N'',N'''-Bis[(E)-(2-chlorophenyl)methylidene]carbonic dihydrazide (7)] | 2.33 | 4.12 |
| O=C(N/N=C/c1ccccc1[N+](=O)[O-])N/N=C/c1ccccc1[N+](=O)[O-] [N'',N'''-Bis[(E)-(2-nitrophenyl)methylidene]carbonic dihydrazide (2)] | 1.85 | 1.81 |
| O=C(N/N=C/c1ccc(Br)cc1)N/N=C/c1ccc(Br)cc1 [N'',N'''-Bis[(E)-(4-bromophenyl)methylidene]carbonic dihydrazide (4)] | 2.32 | 2.52 |
| O=C(N/N=C/c1ccc([N+](=O)[O-])cc1)N/N=C/c1ccc([N+](=O)[O-])cc1 [N'',N'''-Bis[(E)-(4-nitrophenyl)methylidene]carbonic dihydrazide (1)] | 1.33 | 2.35 |
